Results taken from patent US9211278B2, “Composition containing arylnaphthalene lignan derivative for preventing and/or treating dementia” (KOREA INSTITUTE OF SCIENCE AND TECHNOLOGY, priority 2012, dated 2015).

Tested on: male ICR mouse
Assay: Morris water maze test, scopolamine-impaired memory model
Type: in vivo
Details: oral, 1, 5, 10 and 20 mg/kg, compared to scopolamine group
Method: The male ICR mouse was 5 to 6-week age (25-30 g of body weight) (Orientbio Inc., Seougnam, Republic of Korea), and was raised with solid feed and tap water for 1 week before being used for test. At a first day, the normal control group and the group administered by the scopolamine were fed with 5% (v/v) DMSO-saline, the test group was orally administered by 1, 5, 10 and 20 mg/kg/10 ml of Justicidin A (C1) in 5% DMSO-Saline, and the comparative group was administered with 2 mg/kg/10 ml of Donepezil (brand name: Aricept, Eisai) being commercially available as a drug for treating an dementia of the Alzheimer's type. […]
The same test was performed repetitively twice per a day for 4 days as an Acquisition Test, and the entire test was automatically recorded and analyzed with Noldus Ethovision 7.0 program (Noldus Information Technology, USA).
In addition, after finishing the Acquisition Test performed for four (4) days, the Probe test was carried out at fifth day. […] The whole test procedure was automatically recorded and analyzed with Noldus Ethovision 7.0 program (Noldus Information Technology, USA).

Q: For COc1cc2c(OC)c3c(c(-c4ccc5c(c4)OCO5)c2cc1OC)C(=O)OC3 [Justicidin A], which “memory and learning ability (acquisition and probe test)” value is on record?
A: Its value is “equivalent or higher memory and learning ability”.
